In patent publication US10717757B2, “Ketolides having antibacterial activity” (BIOPHARMATI SA, priority 2016, dated 2020):
In brackets after ≈: the same amount, converted by molar mass. Read-outs that look alike come from different tables or passages of the source.

Assays:
[1] = system: S. pneumoniae AUCC488, macrolide & penicillin resistant; experiment: Minimum inhibitory concentration (MIC), broth microdilution, AUCC488; type: cell-based, Streptococcus pneumoniae
Procedure: (§1) Protocols for Determining Minimum Inhibitory Concentration (MIC) of Test Compounds Against Streptococcus Pneumoniae Strains
(§2) The test strains are revived from frozen stock on blood agar plates and incubated at 35±2° C. for 18-20 hours in 5% CO2. Colonies are directly suspended from an overnight grown agar culture in CAMHB/saline and optical density adjusted to 0.5 McFarland turbidity standard (1-2×10^8 cfu/mL). Adjusted cultures are further diluted 1:100 using CAMHB such that after inoculation each well finally contains ˜5×10^5 cfu/mL. For broth dilution testing of Streptococcus species, CAMHB is supplemented with 2.5-5% v/v LHB. Colony counts of inoculum suspension is estimated by ten-fold serial dilutions and plating each dilution on agar plate. After incubation, the plates are observed for growth and microbial counts determined.
(§3) Compounds are weighed and dissolved in water/DMSO/other solvent to yield 1 mg/mL stock solution. Serial two-fold dilutions of the test compounds and reference antibiotics are prepared. 50 μL of the diluted drug solutions are dispensed in wells of microtiter trays (96 well).
(§4) To each of the wells of the microtiter tray, 50 μL of the diluted organism are inoculated to obtain a final inoculum density of ˜5×10^5 cfu/mL. Broth control, compound control and organism control wells are set up.
(§5) MIC testing are done in duplicates
(§6) MIC is defined as the lowest concentration of an antimicrobial agent that prevents visible growth of a microorganism in broth dilution susceptibility test.
(§7) After incubation period, growth of organism in the wells are detected by unaided eye facilitated by a viewing device. The amount of growth in the drug-containing wells are compared with the amount of growth in the organism-control wells.

[2] = system: S. pneumoniae AUCC479, macrolide & penicillin sensitive; experiment: Minimum inhibitory concentration (MIC), broth microdilution, AUCC479; type: cell-based, Streptococcus pneumoniae
Procedure: as §1, §2, §3, §4, §5, §6, §7

[3] = system: S. pneumoniae ATCC 49619 (CLSI QC strain); experiment: Minimum inhibitory concentration (MIC), broth microdilution, QC strain; type: cell-based, Streptococcus pneumoniae; settings: MIC in duplicates
Procedure: as §1, §2, §3, §4, §5, §6, §7

[4] = system: S. pneumoniae AUCC483, macrolide resistant & penicillin sensitive; experiment: Minimum inhibitory concentration (MIC), broth microdilution, AUCC483; type: cell-based, Streptococcus pneumoniae
Procedure: as §1, §2, §3, §4, §5, §6, §7

[5] = system: S. pneumoniae AUCC489, macrolide & penicillin resistant; experiment: Minimum inhibitory concentration (MIC), broth microdilution, AUCC489; type: cell-based, Streptococcus pneumoniae
Procedure: as §1, §2, §3, §4, §5, §6, §7

CYP3A4 = CYP3A4 (Homo sapiens, UniProt P08684); experiment: Cytochrome P4503A4 inhibition assay, human liver microsomes, LC-MS/MS probe substrate method; settings: for IC50: human liver microsomes 0.1 mg/mL, 10 min; for CYP3A4 inhibition in comparison with solithromycin and ketoconazole: summary of Table 1
Procedure: Cytochrome P4503A4 Inhibition Assay for Determining IC50
The potential of the compound to inhibit CYP 3A4 was tested by the LC-MS/MS based probe substrate method using human liver microsomes. Midazolam or testosterone, which are metabolized to hydroxymidazolam or hydroxytestosterone by CYP 3A4, were the probe substrates used. […] NADPH was added as the cofactor. […] After incubation for ten minutes, the amount of 1-hydroxymidazolam or 6β-hydroxyltestosterone formed was determined by LC-MS/MS method as a measure of enzyme activity. Percent inhibition of enzyme activity was calculated based on the amount of metabolites (1-hydroxymidazolam or 6β-hydroxyltestosterone) formed for each sample relative to the basal control and plotted in a curve versus the compound concentration to obtain the IC50.

[6] = read-out: IC50 CYP3A4 (midazolam), 5 μM midazolam
[7] = read-out: IC50 CYP3A4 (testosterone), 50 μM testosterone

Chain of CYP3A4 (P08684 whole entry): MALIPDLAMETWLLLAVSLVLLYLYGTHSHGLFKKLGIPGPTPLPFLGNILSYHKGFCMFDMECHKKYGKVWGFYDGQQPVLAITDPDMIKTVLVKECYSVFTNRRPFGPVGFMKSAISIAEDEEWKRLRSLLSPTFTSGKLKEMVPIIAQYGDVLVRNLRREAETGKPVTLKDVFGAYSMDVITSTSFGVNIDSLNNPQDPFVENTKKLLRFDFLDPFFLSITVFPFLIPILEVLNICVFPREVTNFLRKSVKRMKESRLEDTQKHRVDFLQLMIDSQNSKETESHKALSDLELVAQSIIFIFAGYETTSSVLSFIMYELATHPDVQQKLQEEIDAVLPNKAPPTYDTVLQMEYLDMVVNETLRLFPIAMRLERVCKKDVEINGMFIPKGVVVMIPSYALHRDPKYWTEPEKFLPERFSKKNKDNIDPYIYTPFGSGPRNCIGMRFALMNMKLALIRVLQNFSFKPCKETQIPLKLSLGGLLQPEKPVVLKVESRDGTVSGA

| Molecule | MIC Strep. Pneumoniae AUCC 488 penR, macR M or iMLS [1] | MIC Strep. Pneumoniae AUCC 479 penS, macS [2] | MIC Strep. Pneumoniae ATCC49619 QC strain [3] | MIC Strep. Pneumoniae AUCC 483 penS, macR cMLS [4] | MIC Strep. Pneumoniae AUCC 489 penR, macR cMLS [5] | IC50 (CYP3A4; [6]) | CYP3A4 inhibition in comparison with solithromycin and ketoconazole (CYP3A4) | IC50 (CYP3A4; [7]) | MIC ([3]; Streptococcus pneumoniae, ATCC49619 QC strain, read-out: MIC Strep. Pneumoniae ATCC49619 QC strain) |
| --- | --- | --- | --- | --- | --- | --- | --- | --- | --- |
| CC[C@H]1OC(=O)[C@H](C)C(=O)[C@H](C)[C@@H](O[C@@H]2O[C@H](C)C[C@H](N(C)C)[C@H]2O)[C@](C)(OC/C=C/c2cnc3ccccc3c2)C[C@@H](C)C(=O)[C@H](C)[C@H]2N(CCOC)C(=O)O[C@]12C [Compound 13E, (3aS,4R,7R,9R,10R,11R,13R,15R,15aR)-10-{[(2S,3R,4S,6R)-4-(dimethylamino)-3-hydroxy-6-methyloxan-2-yl]oxy}-4-ethyl-1-(2-methoxyethyl)-3a,7,9,11,13,15-hexamethyl-11-{[(2E)-3-(quinolin-3-yl)prop-2-en-1-yl]oxy}-tetradecahydro-1H-oxacyclotetradeca[4,3-d][1,3]oxazole-2,6,8,14-tetrone] | 0.25 to 0.5 µg/mL | 0.03 to 0.06 µg/mL | 0.06 to 0.12 µg/mL | >4 µg/mL | >4 µg/mL |  |  |  |  |
| CC[C@H]1OC(=O)[C@H](C)C(=O)[C@H](C)[C@@H](O[C@@H]2O[C@H](C)C[C@H](N(C)C)[C@H]2O)[C@](C)(OC/C=C/c2cnc3ccccc3c2)C[C@@H](C)C(=O)[C@H](C)[C@H]2N(CC#N)C(=O)O[C@]12C [Compound 13H, 2-[(3aS,4R,7R,9R,10R,11R,13R,15R,15aR)-10-{[(2S,3R,4S,6R)-4-(dimethylamino)-3-hydroxy-6-methyloxan-2-yl]oxy}-4-ethyl-3a,7,9,11,13,15-hexamethyl-2,6,8,14-tetraoxo-11-{[(2E)-3-(quinolin-3-yl)prop-2-en-1-yl]oxy}-tetradecahydro-1H-oxacyclotetradeca[4,3-d][1,3]oxazol-1-yl]acetonitrile] | 0.25 to 1 µg/mL | 0.008 to 0.015 µg/mL | 0.03 to 0.06 µg/mL | 2 to 4 µg/mL | 0.25 to 1 µg/mL | 1.9 µM | lower IC50 inhibition of CYP3A4 inhibition |  |  |
| CC[C@H]1OC(=O)[C@H](C)C(=O)[C@H](C)[C@@H](O[C@@H]2O[C@H](C)C[C@H](N(C)C)[C@H]2O)[C@](C)(OC/C=C/c2cnc3ccccc3c2)C[C@@H](C)C(=O)[C@H](C)[C@H]2N(CC3CCN(C)CC3)C(=O)O[C@]12C [Compound 13L, (3aS,4R,7R,9R,10R,11R,13R,15R,15aR)-10-{[(2S,3R,4S,6R)-4-(dimethylamino)-3-hydroxy-6-methyloxan-2-yl]oxy}-4-ethyl-3a,7,9,11,13,15-hexamethyl-1-[(1-methylpiperidin-4-yl)methyl]-11-{[(2E)-3-(quinolin-3-yl)prop-2-en-1-yl]oxy}-tetradecahydro-1H-oxacyclotetradeca[4,3-d][1,3]oxazole-2,6,8,14-tetrone] | 0.5 to 1 µg/mL | 0.03 µg/mL (≈ 0.0342 µM) | 0.06 µg/mL (≈ 0.0684 µM) | 0.5 to 1 µg/mL | 0.5 to 1 µg/mL | 6.3 µM | lower IC50 inhibition of CYP3A4 inhibition |  |  |
| CCC1OC(=O)C(C)C(=O)C(C)C(OC2OC(C)CC(N(C)C)C2O)C(C)(OCC=Cc2cnc3ccccc3c2)CC(C)C(=O)C(C)C2N(CC3CCN(C)C3)C(=O)OC12C [Compound 13N, (3aS,4R,7R,9R,10R,11R,13R,15R,15aR)-10-{[(2S,3R,4S,6R)-4-(dimethylamino)-3-hydroxy-6-methyloxan-2-yl]oxy}-4-ethyl-3a,7,9,11,13,15-hexamethyl-1-{[(3S)-1-methylpyrrolidin-3-yl]methyl}-11-{[(2E)-3-(quinolin-3-yl)prop-2-en-1-yl]oxy}-tetradecahydro-1H-oxacyclotetradeca[4,3-d][1,3]oxazole-2,6,8,14-tetrone] | 0.5 to 1 µg/mL | 0.03 µg/mL (≈ 0.0348 µM) | 0.03 to 0.06 µg/mL | 0.5 to 1 µg/mL | 0.5 to 1 µg/mL |  | lower IC50 inhibition of CYP3A4 inhibition | 7.7 µM |  |
| CC[C@H]1OC(=O)[C@H](C)[C@@H](O[C@H]2C[C@@](C)(OC)[C@@H](O)[C@H](C)O2)[C@H](C)[C@@H](O[C@@H]2O[C@H](C)C[C@H](N(C)C)[C@H]2O)[C@](C)(O)C[C@@H](C)C(=O)[C@H](C)[C@@H](O)[C@]1(C)O [erythromycin, reference compound] | 8 to 16 µg/mL | 0.03 to 0.06 µg/mL |  | 64 µg/mL (≈ 87.2 µM) | 8 to 32 µg/mL |  |  |  | 0.03 to 0.06 µg/mL (≈ 0.0409 to 0.0818 µM) |
| (3aS,4R,7R,9R,10R,11R,13R,15R,15aR)-1-[2-(diethylamino)ethyl]-10{[(2S,3R,4S,6R)-4-(dimethylamino)-3-hydroxy-6-methyloxan-2-yl]oxy}-4-ethyl-3a,7,9,11,13,15-hexamethyl-11-{[(2E)-3-(quinolin-3-yl)prop-2-en-1-yl]oxy}-tetradecahydro-1H-oxacyclotetradeca[4,3-d][1,3]oxazole-2,6,8,14-tetrone [Compound 13A] | 0.12 to 0.25 µg/mL | 0.008 to 0.015 µg/mL | 0.015 to 0.06 µg/mL | 0.12 to 0.25 µg/mL | 0.12 to 0.25 µg/mL | 1.2 µM | lower IC50 inhibition of CYP3A4 inhibition |  |  |
| (3aS,4R,7R,9R,10R,11R,13R,15R,15aR)-1-[3-(azetidin-1-yl)propyl]-10-{[(2S,3R,4S,6R)-4-(dimethylamino)-3-hydroxy-6-methyloxan-2-yl]oxy}-4-ethyl-3a,7,9,11,13,15-hexamethyl-11-{[(2E)-3-(quinolin-3-yl)prop-2-en-1-yl]oxy}-tetradecahydro-1H-oxacyclotetradeca[4,3-d][1,3]oxazole-2,6,8,14-tetrone [Compound 13M] | 0.5 to 1 µg/mL | 0.015 to 0.03 µg/mL | 0.03 to 0.06 µg/mL | 0.25 to 0.5 µg/mL | 0.25 to 0.5 µg/mL |  | lower IC50 inhibition of CYP3A4 inhibition | 10.3 µM |  |
| (3aS,4R,7R,9R,10R,11R,13R,15R,15aR)-10-{[(2S,3R,4S,6R)-4-(dimethylamino)-3-hydroxy-6-methyloxan-2-yl]oxy}-1-[2-(dimethylamino)ethyl]-4-ethyl-3a,7,9,11,13,15-hexamethyl-11-{[(2E)-3-(quinolin-3-yl)prop-2-en-1-yl]oxy}-tetradecahydro-1H-oxacyclotetradeca[4,3-d][1,3]oxazole-2,6,8,14-tetrone [Compound 13F, reference compound] | 0.25 µg/mL | 0.0015 µg/mL | 0.015 to 0.06 µg/mL | 0.25 to 0.5 µg/mL | 0.12 to 0.25 µg/mL | 1.1 µM |  |  |  |
| (3aS,4R,7R,9R,10R,11R,13R,15R,15aR)-10-{[(2S,3R,4S,6R)-4-(dimethylamino)-3-hydroxy-6-methyloxan-2-yl]oxy}-4-ethyl-1-{2-[ethyl(methyl)amino]ethyl}-3a,7,9,11,13,15-hexamethyl-11-{[(2E)-3-(quinolin-3-yl)prop-2-en-1-yl]oxy}-tetradecahydro-1H-oxacyclotetradeca[4,3-d][1,3]oxazole-2,6,8,14-tetrone [Compound 13G] | 0.5 to 1 µg/mL | 0.03 to 0.06 µg/mL | 0.12 to 0.25 µg/mL | 1 to 2 µg/mL | 0.5 to 1 µg/mL | 8.8 µM | lower IC50 inhibition of CYP3A4 inhibition |  |  |
